Experimental data as given in patent US9540423B2, “Plant defensins and use in the treatment of proliferative diseases” (Balmoral Australia Pty Ltd, priority 2011, dated 2017).
Read-outs that look alike come from different tables or passages of the source.

Legend:
Phoma betae = settings: cited from earlier work
[1] = subcutaneous, intraperitoneal or intratumoural routes; previous studies; cited from earlier work
Aspergillus nidulans = settings: cited from earlier work
Verticillium dahliae = settings: cited from earlier work
Leptosphaeria maculans = settings: cited from earlier work
[2] = tested on: Fusarium oxysporum f. sp. vasinfectum (Fov); settings: cited from earlier work
[3] = tested on: normal human umbilical vein endothelial cells (HUVEC); assay: MTT cell viability assay, HUVEC; assay type: cell-based; settings: 48 h
Description: Tumour cells were seeded in quadruplicate into wells of a flat-bottomed 96-well microtitre plate (50 μL) at various densities starting at 2×10^6 cells/mL. Four wells containing complete culture medium alone were included in each assay as a background control. The microtitre plate was incubated overnight at 37° C. under a humidified atmosphere containing 5% CO2/95% air, prior to the addition of complete culture medium (100 μL) to each well and further incubated at 37° C. for 48 h. Optimum cell densities (30-50% confluency) for cell viability assays were determined for each cell line by light microscopy.
Tumour cells were seeded in a 96-well microtitre plate (50 μL/well) at an optimum density determined in the cell optimisation assay as above. Background control wells (n=8) containing the same volume of complete culture medium were included in the assay. The microtitre plate was incubated overnight at 37° C., prior to the addition of proteins at various concentrations and the plate was incubated for a further 48 h. […]
The effect of NoD173 on the viability of a tumour cell line and a normal human cell isolate was determined using a 3-(4,5-dimethyl-2-thiazolyl)-2,5-diphenyl-2H-tetrazolium bromide (MTT) in vitro cell culture viability assay. […]

Thielaviopsis basicola = settings: cited from earlier work

Substance | Concentration inhibiting growth of Phoma betae (Phoma betae) | Dose at which toxicity was shown [1] | Growth inhibition of A. nidulans (Aspergillus nidulans; 1 μM) | Growth inhibition of A. nidulans (Aspergillus nidulans; 5 μM) | Growth inhibition of V. dahliae (Verticillium dahliae; 1 μM) | Growth inhibition of V. dahliae (Verticillium dahliae; 5 μM) | Growth inhibition of L. maculans (Leptosphaeria maculans; 1 μM) | Growth inhibition of L. maculans (Leptosphaeria maculans; 5 μM) | Growth inhibition of Fov ([2]; 1 μM) | Growth inhibition of Fov ([2]; 5 μM) | IC50 [3] | Growth inhibition of T. basicola (Thielaviopsis basicola; 1 μM) | Growth inhibition of T. basicola (Thielaviopsis basicola; 5 μM)
Rs-AFP2: antifungal protein (plant defensin) isolated from radish seeds, 51 amino acids (QKLCQRPSGTWSGVCGNNNACKNQCIRLEKARHGSCNYVFPAHKCICYFPC; UniProt P30230 30-80, looked up) | 1 µg/mL |  |  |  |  |  |  |  |  |  |  |  | 
NaD1: plant defensin isolated from floral tissue of Nicotiana alata; model class II defensin (RECKTESNTFPGICITKPPCRKACISEKFTDGHCSKILRRCLCTKPC; UniProt Q8GTM0 26-72, looked up) |  | above 1 mg/kg body weight | approximately 65% | more than 80% | approximately 65% | more than 80% | 50% | more than 80% | 50% | more than 80% | 15 µM | approximately 65% | more than 80%
